Source: PubChem BioAssay (NCI)
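Cells were grown in 96-well plates and exposed to each compound for 48 hours at five concentrations; endpoints were interpolated linearly between bracketing concentrations, or set to the highest concentration if not reached. Here, GI50 denotes the concentration required for 50% inhibition of growth. The concentration for full growth arrest is given as TGI.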

Tests used:
Test in all cases: inhibition of tumour cell growth, NCI panel, 48 h
[1] = tested on: NCI-H460 lung
[2] = tested on: SW-620 colon
[3] = tested on: RXF 393 renal
[4] = tested on: LOX IMVI melanoma
[5] = tested on: SK-MEL-5 melanoma
[6] = tested on: HCT-15 colon
[7] = tested on: SN12C renal
[8] = tested on: CCRF-CEM leukemia
[9] = tested on: BT-549 breast
[10] = tested on: T-47D breast
[11] = tested on: HOP-92 NSCLC
[12] = tested on: IGROV1 ovarian
[13] = tested on: A498 renal
[14] = tested on: HOP-62 NSCLC
[15] = tested on: ACHN renal
[16] = tested on: SF-268 CNS
[17] = tested on: MOLT-4 leukemia
[18] = tested on: MDA-MB-435
[19] = tested on: OVCAR-4 ovarian
[20] = tested on: SK-OV-3 ovarian
[21] = tested on: COLO 205 colon
[22] = tested on: NCI/ADR-RES ovarian
[23] = tested on: CAKI-1 renal
[24] = tested on: 786-0 renal
[25] = tested on: NCI-H522 lung
[26] = tested on: OVCAR-5 ovarian
[27] = tested on: HT29 colon
[28] = tested on: NCI-H23 lung
[29] = tested on: HS 578T breast
[30] = tested on: SK-MEL-2 melanoma
[31] = tested on: OVCAR-3 ovarian
[32] = tested on: UACC-257 melanoma
[33] = tested on: SK-MEL-28 melanoma
[34] = tested on: SNB-19 CNS
[35] = tested on: SR leukemia
[36] = tested on: HCC-2998 colon
[37] = tested on: UACC-62 melanoma
[38] = tested on: RPMI-8226 leukemia
[39] = tested on: DU-145 prostate
[40] = tested on: MDA-MB-231 breast
[41] = tested on: K-562 leukemia
[42] = tested on: MDA-N
[43] = tested on: EKVX NSCLC
[44] = tested on: HL-60(TB) leukemia
[45] = tested on: NCI-H226 lung
[46] = tested on: SNB-75 CNS
[47] = tested on: U251 CNS
[48] = tested on: OVCAR-8 ovarian
[49] = tested on: HCT-116 colon
[50] = tested on: MALME-3M melanoma
[51] = tested on: PC-3 prostate
[52] = tested on: KM12 colon
[53] = tested on: A549 NSCLC
[54] = tested on: MCF7 breast
[55] = tested on: M14 melanoma
[56] = tested on: UO-31 renal
[57] = tested on: SF-295 CNS
[58] = tested on: TK-10 renal

Structure (SMILES): C=CCc1cccc2cc(C(=O)NC3CCCCC3)c(=N)oc12
- TGI [1]: 35.9 µM
- TGI [2]: > 100 µM
- TGI [3]: > 100 µM
- TGI [4]: 34 µM
- TGI [5]: 27.4 µM
- TGI [6]: 34.9 µM
- TGI [7]: 29.8 µM
- TGI [8]: > 100 µM
- TGI [9]: > 100 µM
- TGI [10]: 52.8 µM
- TGI [11]: > 100 µM
- TGI [12]: > 100 µM
- TGI [13]: 52 µM
- TGI [14]: 37.7 µM
- TGI [15]: 35 µM
- TGI [16]: 41.2 µM
- TGI [17]: > 100 µM
- TGI [18]: 77.5 µM
- TGI [19]: 63.1 µM
- TGI [20]: > 100 µM
- TGI [21]: 33.5 µM
- TGI [22]: > 100 µM
- TGI [23]: 37.9 µM
- TGI [24]: 31.2 µM
- TGI [25]: > 100 µM
- TGI [26]: 39 µM
- TGI [27]: 57.7 µM
- TGI [28]: 51.8 µM
- TGI [29]: 31.4 µM
- TGI [30]: 16.1 µM
- TGI [31]: 28.3 µM
- TGI [32]: 78 µM
- TGI [33]: 66.2 µM
- TGI [34]: 72.8 µM
- TGI [35]: > 100 µM
- TGI [36]: 31.2 µM
- TGI [37]: 41.2 µM
- TGI [38]: > 100 µM
- TGI [39]: 52.5 µM
- TGI [40]: 35.9 µM
- TGI [41]: > 100 µM
- TGI [42]: 47.3 µM
- TGI [43]: > 100 µM
- TGI [44]: > 100 µM
- TGI [45]: 44.9 µM
- TGI [46]: 35 µM
- TGI [47]: > 100 µM
- TGI [48]: 57.8 µM
- TGI [49]: 28.6 µM
- TGI [50]: > 100 µM
- TGI [51]: 31.2 µM
- TGI [52]: 33 µM
- TGI [53]: > 100 µM
- TGI [54]: > 100 µM
- TGI [55]: 39.1 µM

Structure (SMILES): CCCCOC(=O)CC(CC(=O)OCCCC)(OC(C)=O)C(=O)OCCCC
- TGI [1]: > 200 µM
- TGI [2]: > 200 µM
- GI50 [3]: 96 µM
- TGI [3]: > 124 µM
- GI50 [4]: 40.5 µM
- TGI [4]: > 200 µM
- GI50 [5]: 28.4 µM
- TGI [5]: > 200 µM
- TGI [6]: > 200 µM
- TGI [7]: > 200 µM
- TGI [8]: > 200 µM
- TGI [9]: > 200 µM
- GI50 [10]: 26.4 µM
- TGI [10]: > 200 µM
- TGI [11]: > 200 µM
- TGI [12]: > 200 µM
- TGI [13]: > 200 µM
- TGI [14]: > 200 µM
- TGI [15]: > 200 µM
- TGI [16]: > 200 µM
- GI50 [17]: 24.8 µM
- TGI [17]: > 200 µM
- TGI [18]: > 200 µM
- GI50 [19]: 69.1 µM
- TGI [19]: > 200 µM
- TGI [20]: > 200 µM
- TGI [21]: > 200 µM
- GI50 [22]: 74.2 µM
- TGI [22]: > 200 µM
- TGI [23]: > 200 µM
- TGI [24]: > 200 µM
- TGI [25]: > 200 µM
- TGI [26]: > 200 µM
- GI50 [27]: 68.8 µM
- TGI [27]: > 200 µM
- TGI [28]: > 200 µM
- TGI [29]: > 200 µM
- TGI [30]: > 200 µM
- TGI [31]: > 200 µM
- TGI [32]: > 200 µM
- TGI [33]: > 200 µM
- TGI [34]: > 200 µM
- GI50 [35]: 32.2 µM
- TGI [35]: > 50.7 µM
- TGI [36]: > 200 µM
- TGI [37]: > 200 µM
- GI50 [38]: 29.2 µM
- TGI [38]: 123 µM
- TGI [39]: > 200 µM
- TGI [40]: > 200 µM
- TGI [56]: 98.2 µM
- GI50 [41]: 53.2 µM
- TGI [41]: > 200 µM
- GI50 [57]: 54.3 µM
- TGI [57]: > 200 µM
- TGI [58]: > 200 µM
- TGI [42]: > 200 µM
- TGI [43]: > 200 µM
- GI50 [44]: 49.1 µM
- TGI [44]: > 179 µM
- GI50 [45]: 55.6 µM
- TGI [45]: 198 µM
- TGI [46]: 56.4 µM
- GI50 [47]: 92.6 µM
- TGI [47]: > 200 µM
- TGI [48]: > 200 µM
- GI50 [49]: 70.9 µM
- TGI [49]: > 200 µM
- TGI [50]: > 200 µM
- GI50 [51]: 86.5 µM
- TGI [51]: > 200 µM
- TGI [52]: > 200 µM
- TGI [53]: > 200 µM
- TGI [54]: > 200 µM
- TGI [55]: > 200 µM
